Test results taken from patent US6806085B1, “2-deoxyglucose-6-phosphate (2-DOG-6-P) phosphatase DNA sequences as selection marker in plants” (IPK Gatersleben, priority 1997, dated 2004).

What was measured:
tobacco seedlings = test: Tobacco seedlings on 0.05% 2-DOG containing MS medium; type: in vivo, Nicotiana tabacum Var. Samsun NN; conditions: four weeks
Description: Seeds of Nicotiana tabacum Var. Samsun NN were sterilized and placed on 0.05% 2-DOG containing MS medium. A: four weeks old seedlings of an untransformed plant; B: four weeks old seedlings of a plant expressing the DOG^R1 gene under the control of the 35S promoter. In order to detect the resistance of seedlings expressing the DOG^R1 gene seeds of the tobacco plants described in Examples 5 and 6 as well as seeds of untransformed tobacco plants were sterilized and placed on 0.05% 2-DOG containing MS medium.

tobacco leaf disks = test: Toxicity of 2-DOG for plant cells, tobacco leaf pieces on 2-DOG-containing MS medium; type: cell-based, Nicotiana tabacum Var. Samsun NN; conditions: MS medium with 0.01 to 0.5% 2-DOG, two weeks
Description: (§1) FIGS. 2A and 2B Cultivation of tobacco (Nicotiana tabacum Var. Samsun NN, A-D) and potato (Solanum tuberosum var. Solara, E-H) leaf disks on 2-DOG-containing MS medium. A, E: control MS medium without addition of 2-deoxyglucose; B, F: MS medium with 0.05% 2-DOG; C, G:MS medium with 0.1% 2-DOG; D, H: MS medium with 0.5% 2-DOG. For the detection of the toxicity of 2-DOG leaf pieces (about 1 cm^2) of sterile tobacco and potato plants were cultivated for two weeks on Murashige and Skoog medium (Murashige & Skoog (1962) Physiol. Plant. 15, 473), to which 0.01 to 0.5% 2-DOG had been added.

yeast cells = conditions: addition of 2-DOG; cited from earlier work
[1] = test system: Picea excelsa (spruce) cells; conditions: cited from earlier work
Nicotiana tabacum cells = conditions: cited from earlier work
potato shoots = test: Potato shoots on 0.05% 2-DOG containing MS medium; type: in vivo, Solanum tuberosum var. Solara; conditions: five weeks
Description: Shoots of potato plants Solanum tuberosum var. Solara were placed on 0.05% 2-DOG containing MS medium. A: five weeks old shoot of an untransformed plant; B: five weeks old shoot of a plant expressing the DOG^R1 gene under the control of the 35S promoter. The construct described in Example 3 was transferred to potato plants Solanum tuberosum var. Solara by Agrobacteria-mediated transformation. The regenerated shoots were cultivated on selection-free medium. After six weeks the tips of the shoots were transferred to 0.05% 2-DOG containing MS medium.

potato leaf disks = test: Toxicity of 2-DOG for plant cells, potato leaf pieces on 2-DOG-containing MS medium; type: cell-based, Solanum tuberosum var. Solara; conditions: MS medium with 0.01 to 0.5% 2-DOG, two weeks
Description: as §1

pea calli = test: Pea calli on 0.075% 2-DOG containing medium; type: cell-based, Pisum sativum
Description: Calli of pea plants Pisum sativum were placed on 0.075% 2-DOG containing B5 medium. A: calllus of untransformed plant on 0.075% 2-DOG; B: callus of a plant expressing the DOG^R1 gene under the control of the 35S promoter on 0.075% 2-DOG. The construct described in Example 10 was transferred to pea plants of Pisum sativum by Agrobacteria-mediated transformation. Calli of transformed and untransformed plants were placed on 0.075% 2-DOG containing medium.

[2] = test system: root growth of many plants; conditions: addition of 2-DOG; cited from earlier work

Structure (SMILES): O=CC[C@@H](O)[C@H](O)[C@H](O)CO [2-DOG, 2-deoxyglucose]
- seedling survival (tobacco seedlings; seedlings expressing DOG^R1 gene under 35S promoter): vital
- seedling survival (tobacco seedlings; seedlings of untransformed plants): died at an early stage of development
- effect on leaf disks (tobacco leaf disks): caused the leaf disks to die
- respiration and growth of cells (yeast cells): inhibition of the respiration and the growth of cells
- cell growth in tissue culture [1]: strongly inhibited
- cell growth in tissue culture (Nicotiana tabacum cells): strongly inhibited
- shoot growth (potato shoots; shoot expressing DOG^R1 gene under 35S promoter): exhibits root and stem growth
- shoot growth (potato shoots; shoot of untransformed plant): has not grown
- effect on leaf disks (potato leaf disks): caused the leaf disks to die
- shoot development from callus (pea calli; callus of untransformed plants): did not develop Shoots
- shoot development from callus (pea calli; callus transformed with DOG^R1 gene under 35S promoter): developed shoots
- root growth [2]: inhibits the root growth
